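Following 48 hours of exposure in 96-well plates, responses at five concentrations were used to interpolate endpoints linearly. At the GI50, growth is halved. TGI is the concentration that stops growth completely.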
Tests used:
Assay in all cases: NCI-60 cell line screen, 48 h
OVCAR-8 ovarian = tested on: OVCAR-8 ovarian
SR leukemia = tested on: SR leukemia
OVCAR-5 ovarian = tested on: OVCAR-5 ovarian
CAKI-1 renal = tested on: CAKI-1 renal
TK-10 renal = tested on: TK-10 renal
M14 melanoma = tested on: M14 melanoma
KM12 colon = tested on: KM12 colon
NCI/ADR-RES ovarian = tested on: NCI/ADR-RES ovarian
OVCAR-3 ovarian = tested on: OVCAR-3 ovarian
U251 CNS = tested on: U251 CNS
K-562 leukemia = tested on: K-562 leukemia
RPMI-8226 leukemia = tested on: RPMI-8226 leukemia
ACHN renal = tested on: ACHN renal
HCC-2998 colon = tested on: HCC-2998 colon
PC-3 prostate = tested on: PC-3 prostate
NCI-H23 lung = tested on: NCI-H23 lung
A549 NSCLC = tested on: A549 NSCLC
MOLT-4 leukemia = tested on: MOLT-4 leukemia
SW-620 colon = tested on: SW-620 colon
SK-MEL-28 melanoma = tested on: SK-MEL-28 melanoma
CCRF-CEM leukemia = tested on: CCRF-CEM leukemia
COLO 205 colon = tested on: COLO 205 colon
786-0 renal = tested on: 786-0 renal
SK-MEL-5 melanoma = tested on: SK-MEL-5 melanoma
SN12C renal = tested on: SN12C renal
RXF 393 renal = tested on: RXF 393 renal
EKVX NSCLC = tested on: EKVX NSCLC
HCT-15 colon = tested on: HCT-15 colon
HT29 colon = tested on: HT29 colon
SNB-19 CNS = tested on: SNB-19 CNS
A498 renal = tested on: A498 renal
IGROV1 ovarian = tested on: IGROV1 ovarian
MALME-3M melanoma = tested on: MALME-3M melanoma
NCI-H226 lung = tested on: NCI-H226 lung
MDA-MB-468 breast = tested on: MDA-MB-468 breast
NCI-H522 lung = tested on: NCI-H522 lung
MCF7 breast = tested on: MCF7 breast
HL-60(TB) leukemia = tested on: HL-60(TB) leukemia
UACC-62 melanoma = tested on: UACC-62 melanoma
SK-OV-3 ovarian = tested on: SK-OV-3 ovarian
HOP-62 NSCLC = tested on: HOP-62 NSCLC
OVCAR-4 ovarian = tested on: OVCAR-4 ovarian
T-47D breast = tested on: T-47D breast
NCI-H460 lung = tested on: NCI-H460 lung
LOX IMVI melanoma = tested on: LOX IMVI melanoma
HCT-116 colon = tested on: HCT-116 colon
SF-539 CNS = tested on: SF-539 CNS
HOP-92 NSCLC = tested on: HOP-92 NSCLC
BT-549 breast = tested on: BT-549 breast
MDA-MB-435 = tested on: MDA-MB-435
HS 578T breast = tested on: HS 578T breast
DU-145 prostate = tested on: DU-145 prostate
SF-268 CNS = tested on: SF-268 CNS
UACC-257 melanoma = tested on: UACC-257 melanoma
SF-295 CNS = tested on: SF-295 CNS

## O=C1NC(=S)/C(=C/c2cn(-c3ccccc3)nc2-c2ccccc2)S1
OVCAR-8 ovarian
  GI50: 16.1 µM
  TGI: 80.8 µM
SR leukemia
  GI50: 6.65 µM
  TGI: 32.3 µM
OVCAR-5 ovarian
  GI50: 22 µM
  TGI: > 100 µM
CAKI-1 renal
  GI50: 9.4 µM
  TGI: > 100 µM
TK-10 renal
  GI50: 12.5 µM
  TGI: > 100 µM
M14 melanoma
  GI50: 4.82 µM
  TGI: > 100 µM
KM12 colon
  GI50: 5.8 µM
  TGI: 40.2 µM
NCI/ADR-RES ovarian
  GI50: 7.3 µM
  TGI: > 100 µM
OVCAR-3 ovarian
  GI50: 7.1 µM
  TGI: 27.1 µM
U251 CNS
  GI50: 7.49 µM
  TGI: > 100 µM
K-562 leukemia
  GI50: 5.38 µM
  TGI: > 100 µM
RPMI-8226 leukemia
  GI50: 3.57 µM
  TGI: 94.7 µM
ACHN renal
  GI50: 8.33 µM
  TGI: > 100 µM
HCC-2998 colon
  GI50: 10.6 µM
  TGI: 44.6 µM
PC-3 prostate
  GI50: 5.76 µM
  TGI: > 100 µM
NCI-H23 lung
  GI50: 4.86 µM
  TGI: 51.6 µM
A549 NSCLC
  GI50: 6.74 µM
  TGI: > 100 µM
MOLT-4 leukemia
  GI50: 3.91 µM
  TGI: 34.4 µM
SW-620 colon
  GI50: 9.67 µM
  TGI: > 100 µM
SK-MEL-28 melanoma
  GI50: 5.31 µM
  TGI: > 100 µM
CCRF-CEM leukemia
  GI50: 4.35 µM
  TGI: > 100 µM
COLO 205 colon
  GI50: 11.9 µM
  TGI: 32 µM
786-0 renal
  GI50: 4.79 µM
  TGI: > 100 µM
SK-MEL-5 melanoma
  GI50: 2.59 µM
  TGI: 7.45 µM
SN12C renal
  GI50: 4.73 µM
  TGI: > 100 µM
RXF 393 renal
  GI50: 17.1 µM
  TGI: 71.6 µM
EKVX NSCLC
  GI50: 4.1 µM
  TGI: > 100 µM
HCT-15 colon
  GI50: 4.29 µM
  TGI: 33.8 µM
HT29 colon
  GI50: 9.99 µM
  TGI: 37.1 µM
SNB-19 CNS
  GI50: 4.91 µM
  TGI: > 100 µM
A498 renal
  GI50: 5.6 µM
  TGI: 41.3 µM
IGROV1 ovarian
  GI50: 6.46 µM
  TGI: 45.2 µM
MALME-3M melanoma
  GI50: 4.85 µM
  TGI: 35.8 µM
NCI-H226 lung
  GI50: 13.4 µM
  TGI: > 100 µM
MDA-MB-468 breast
  GI50: 3.13 µM
  TGI: 21.8 µM
NCI-H522 lung
  GI50: 4.39 µM
  TGI: 19.3 µM
MCF7 breast
  GI50: 4.03 µM
  TGI: > 100 µM
HL-60(TB) leukemia
  GI50: 3.94 µM
  TGI: 36.6 µM
UACC-62 melanoma
  GI50: 3.49 µM
  TGI: 15.3 µM
SK-OV-3 ovarian
  GI50: 6.82 µM
  TGI: 81.2 µM
HOP-62 NSCLC
  GI50: 22.8 µM
  TGI: > 100 µM
OVCAR-4 ovarian
  GI50: 5.24 µM
  TGI: > 100 µM
T-47D breast
  GI50: 4.41 µM
  TGI: > 100 µM
NCI-H460 lung
  GI50: 4.89 µM
  TGI: 26.2 µM
LOX IMVI melanoma
  GI50: 13.4 µM
  TGI: > 100 µM
HCT-116 colon
  GI50: 5.57 µM
  TGI: > 100 µM
SF-539 CNS
  GI50: 6.5 µM
  TGI: 21.8 µM
HOP-92 NSCLC
  GI50: 2.3 µM
  TGI: 9.73 µM
BT-549 breast
  GI50: 2.65 µM
  TGI: 11.3 µM
MDA-MB-435
  GI50: 5.49 µM
  TGI: > 100 µM
HS 578T breast
  GI50: 5.73 µM
  TGI: 91.6 µM
DU-145 prostate
  GI50: 9.48 µM
  TGI: > 100 µM
SF-268 CNS
  GI50: 6.07 µM
  TGI: > 100 µM
UACC-257 melanoma
  GI50: 6.36 µM
  TGI: > 100 µM
SF-295 CNS
  GI50: 8.61 µM
  TGI: 32.7 µM

## O=C(N=Nc1c(Cl)c(O)c2ccccc2c1O)C(=O)Nc1cccc(C(F)(F)F)c1
MDA-MB-468 breast
  GI50: 4.16 µM
  TGI: 15.3 µM

## Cn1cc(C2=C(c3cc[nH]c3)C(=O)NC2=O)c2ccccc21
MDA-MB-468 breast
  GI50: 11.9 µM
  TGI: > 25 µM

## C=C1C(=O)O[C@H]2[C@H]1CC/C(COC(=O)CCCCCCCC(=O)OC/C1=C/CC[C@@]3(C)O[C@H]3[C@H]3OC(=O)C(=C)[C@@H]3CC1)=C\CC[C@@]1(C)O[C@@H]21
MDA-MB-468 breast
  GI50: 2.37 µM
  TGI: 6.46 µM

## CC(C)c1[nH]nc2c(NCc3ccc(-c4ccccn4)cc3)nc(SCCN(C)C)nc12
MDA-MB-468 breast
  GI50: < 0.0129 µM
  TGI: < 0.0238 µM

## CC1=CC(C)(C)Nc2ccc(Cc3ccc4c(c3)C(C)=CC(C)(C)N4)cc21
MDA-MB-468 breast
  GI50: 3.81 µM
  TGI: 16.2 µM

## c1cc(C2CCCCC2)ccc1-c1cnc2nonc2n1
MDA-MB-468 breast
  GI50: 0.316 µM
  TGI: 1.36 µM

## CC1=NN(c2cccc(Cl)c2)C(=O)/C1=C\C=C\c1ccccc1
MDA-MB-468 breast
  GI50: 1.66 µM
  TGI: 6.14 µM

## Cc1ccc2c(n1)C(=O)C(Cl)=C(Nc1cc(C(F)(F)F)cc(C(F)(F)F)c1)C2=O
MDA-MB-468 breast
  GI50: 2.01 µM
  TGI: 4.57 µM

## Cc1nc2c(O)c3c(c(O)c2nc1C)C1C=CC3CC1
MDA-MB-468 breast
  GI50: 0.559 µM
  TGI: 1.97 µM

## COc1ccc(/C=C2\COc3ccc(O)c(O)c3C2=O)cc1OC
MDA-MB-468 breast
  GI50: 1.58 µM
  TGI: 4.88 µM

## Cc1cc(Cl)nc(N(CCCNc2ccnc3cc(Cl)ccc23)Cc2cccs2)n1
MDA-MB-468 breast
  GI50: 1.04 µM
  TGI: 4.25 µM

## CCN(CC)S(=O)(=O)c1cccc(-c2ccc3c(NC(=O)C4CC4)n[nH]c3c2)c1
MDA-MB-468 breast
  GI50: 1.22 µM
  TGI: > 6.25 µM

## CCn1cc(C(=O)N/N=C/c2cccs2)c(=O)c2cc(F)c(N3CCNC(C)C3)c(F)c21 (stereo not drawn)
MDA-MB-468 breast
  GI50: 1.66 µM
  TGI: 3.27 µM

## [Cl][Hg][c]1ccc2ccccc2c1
MDA-MB-468 breast
  GI50: 1.46 µM
  TGI: 2.84 µM

From PubChem BioAssay (NCI)
